Assay results: US10294230B2, “3,3-difluoropiperidine carbamate heterocyclic compounds as NR2B NMDA receptor antagonists” (Rugen Holdings (Cayman) Limited, priority 2015, dated 2019)

Test system: electroconvulsive threshold (tonic convulsions)
Assay: Electroconvulsive Threshold Test (ECT)
Format: in vivo, rats
Settings: rats, 3, 10 and 30 mpk p.o., mesylate salt
Procedure: Test compound E1-8.2 was administered as the free base.
Rats were administered ECS (rectangular current: 0.6 ms pulse width, 1.5 s duration, 200 Hz) via earclip electrodes connected to a constant current shock generator (Ugo Basile: type 7801). Test compounds were administered by oral gavage (p.o.) 1 hour before the test at a dose volume of 5 mL/kg.
Treatment groups of 20 rats were exposed to ECS as follows: The first animal was exposed to 30 mA of ECS. […] (increases of 5 mA) until the first tonic convulsion was observed. Once the first tonic convulsion was observed, the intensity of ECS was decreased by 2 mA for the next animal and then decreased or increased by 2 mA from animal to animal depending on whether the previous animal convulsed or not. If the first animal did convulse (tonic convulsions) within 5 seconds, animal no2 is exposed to 25 mA, etc. . . . (decreases of 5 mA) until the absence of tonic convulsions was observed. At this point, the intensity of ECS was increased by 2 mA for the next animal and then decreased or increased by 2 mA from animal to animal depending on whether the previous animal convulsed or not. The minimum current intensity applied is 5 mA and the maximum 95 mA. The first 5 animals serve to approach threshold current and were not included in the analysis. The results are presented as the mean current intensity administered to the final 15 animals of a group. The test was performed blind. A positive percent change indicates an anticonvulsant effect. A negative percent change indicates a proconvulsant effect. The test substance was evaluated at 4 doses, typically using 0.5% dimethylsulfoxide, 4% hydroxypropyl-b-cyclodextrin water as a vehicle, and administered p.o. 60 minutes before ECS, and compared with a vehicle control group. Diazepam (16 mg/kg p.o.), administered under the same experimental conditions, was used as reference substance. The experiment included 6 groups. Data with the test substance was analyzed by comparing treated groups with vehicle control using one-way ANOVA followed by Dunnett's t tests.

Cc1ccc(COC(=O)N2CC[C@H](CNc3nccn4cnnc34)C(F)(F)C2)cc1 [Compound E1-1.2, (+)-R-4-methylbenzyl 4-(([1,2,4]triazolo[4,3-a]pyrazin-8-ylamino)methyl)-3,3-difluoropiperidine-1-carboxylate]
electroconvulsive threshold, pro-/anticonvulsant activity: robust anticonvulsant activity
